Laboratory results published in patent US20070155746A1, “NOVEL SUBSTITUTED PYRIDINYLOXY AND PYRIMIDINYLOXY AMIDES USEFUL AS INHIBITORS OF PROTEIN KINASES” (KALYPSYS, INC., priority 2005, published 2007).

Legend:
Format in all cases: biochemical
[1] = target: T1, human B-Raf protein kinase (Homo sapiens, UniProt P15056); assay: In vitro B-Raf/Mek1 composite kinase assay
T1 construct: GST (N); purchased Upstate Inc. 14-530 (B-Raf); 14-420 (Mek1)
Protocol: In Vitro B-Raf/Mek1 Composite Kinase Assay
2.5 μl of B-Raf kinase buffer (20 mM MOPS [pH 7.2], 25 mM sodium glycerophosphate, 2 mM EGTA [pH 8.0], 1 mM sodium orthovanadate, 1 mM dithiothreitol, 10 mM MgCl2, 0.03% Brij-35, 0.3 mg/ml bovine serum albumin) containing lng of recombinant, N-terminal GST-tagged human B-Raf protein kinase (Δ1-415, Upstate Inc., cat. #14-530) is dispensed to wells of a 1536 multi-well white solid plate. 60 nl of 100× concentration of test compound in DMSO is dispensed to the well by passive pin transfer and incubated for 15 minutes at room temperature (approx. 22° C.). […] The assay plates are sealed and maintained in a humidified environment. After 2 hours, 2.5 μl of PKLight protein kinase assay reagent (Cambrex, cat. #LT07-501) is dispensed. After an additional 5 minute incubation at room temperature, luminescence activity is measured on a Molecular Devices Analyst multi-mode plate reader or other suitable plate reader. Kinase inhibition results in less ATP depletion, and therefore increased luminescence signal. Negative control activity is measured with DMSO lacking any test compound. The positive control is [N-(3-trifluoromethyl-4-chlorophenyl)-N′-(4-(2-methylcarbamoyl-pyridin-4-yl)oxyphenyl)urea], aka Bay 43-9006. Efficacy is measured as a percentage of positive control activity.

[2] = target: T2, VEGFR2 kinase (Homo sapiens, UniProt P35968); assay: In vitro VEGFR2 kinase assay
T2 construct: purchased Invitrogen Inc PV3660
Protocol: (§1) In Vitro VEGFR2 and PDGFRP Kinase Assays
(§2) 2.5 μl of ADP Quest assay buffer (DiscoverX Inc., cat. #90-0071) containing 20 ng VEGFR2 kinase (Invitrogen Inc, cat. #PV3660) or 25 ng PDGFRβ kinase (Invitrogen Inc., cat. #P3082) is dispensed to wells of a 1536 multi-well, black solid plate. 60 nl of 100× concentration of test compound in DMSO is dispensed to the well by passive pin transfer and incubated for 10 minutes at room temperature (approx. 22° C.). 2.5 μl of ADP Quest assay buffer containing 0.25 μg of poly Glu:Tyr (4:1) substrate peptide (Upstate Inc., cat. #12-440) and 60 μM ATP is then dispensed and the kinase reaction allowed to incubate at 30° C. for 2 hours. The assay plates are sealed and maintained in a humidified environment. After the 2 hour incubation, 2 μl of ADP Quest assay reagent A, followed by 2 μl of assay reagent B, is added. After an additional 30 minute incubation at room temperature, fluorescence intensity is measured on a Molecular Devices Aquest multi-mode plate reader or other suitable plate reader (fluorescence excitation filter: 530/25 [Peak(nm)/FWHM passband(nm)]; dichroic beamsplitter: 561 nm longpass; fluorescence emission filter: 580/10 [Peak(nm)/FWHM passband(nm)]. The assay measures the conversion of a non-fluoresecent molecule to fluorescent resorufin, which correlates with kinase activity. Negative control activity is measured with DMSO lacking any test compound. The positive control is [N-(3-trifluoromethyl-4-chlorophenyl)-N′-(4-(2-methylcarbamoyl-pyridin-4-yl)oxyphenyl)urea], aka Bay 43-9006. Efficacy is measured as a percentage of positive control activity.

[3] = target: T3, PDGFRβ kinase (Homo sapiens, UniProt P09619); assay: In vitro PDGFRβ kinase assay
T3 construct: purchased Invitrogen Inc. P3082
Protocol: as §1, §2

T1 sequence (P15056 416-766): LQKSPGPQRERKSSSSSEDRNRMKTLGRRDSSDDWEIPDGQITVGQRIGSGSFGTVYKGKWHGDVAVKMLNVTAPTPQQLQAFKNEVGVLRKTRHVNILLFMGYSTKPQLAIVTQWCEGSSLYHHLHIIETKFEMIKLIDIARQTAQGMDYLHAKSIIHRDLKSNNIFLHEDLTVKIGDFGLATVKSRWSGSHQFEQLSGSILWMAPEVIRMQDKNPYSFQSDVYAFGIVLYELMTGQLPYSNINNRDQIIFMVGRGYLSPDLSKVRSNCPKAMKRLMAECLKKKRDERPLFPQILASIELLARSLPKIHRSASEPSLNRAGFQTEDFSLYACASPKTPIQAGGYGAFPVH
T2 sequence (P35968 20-1356): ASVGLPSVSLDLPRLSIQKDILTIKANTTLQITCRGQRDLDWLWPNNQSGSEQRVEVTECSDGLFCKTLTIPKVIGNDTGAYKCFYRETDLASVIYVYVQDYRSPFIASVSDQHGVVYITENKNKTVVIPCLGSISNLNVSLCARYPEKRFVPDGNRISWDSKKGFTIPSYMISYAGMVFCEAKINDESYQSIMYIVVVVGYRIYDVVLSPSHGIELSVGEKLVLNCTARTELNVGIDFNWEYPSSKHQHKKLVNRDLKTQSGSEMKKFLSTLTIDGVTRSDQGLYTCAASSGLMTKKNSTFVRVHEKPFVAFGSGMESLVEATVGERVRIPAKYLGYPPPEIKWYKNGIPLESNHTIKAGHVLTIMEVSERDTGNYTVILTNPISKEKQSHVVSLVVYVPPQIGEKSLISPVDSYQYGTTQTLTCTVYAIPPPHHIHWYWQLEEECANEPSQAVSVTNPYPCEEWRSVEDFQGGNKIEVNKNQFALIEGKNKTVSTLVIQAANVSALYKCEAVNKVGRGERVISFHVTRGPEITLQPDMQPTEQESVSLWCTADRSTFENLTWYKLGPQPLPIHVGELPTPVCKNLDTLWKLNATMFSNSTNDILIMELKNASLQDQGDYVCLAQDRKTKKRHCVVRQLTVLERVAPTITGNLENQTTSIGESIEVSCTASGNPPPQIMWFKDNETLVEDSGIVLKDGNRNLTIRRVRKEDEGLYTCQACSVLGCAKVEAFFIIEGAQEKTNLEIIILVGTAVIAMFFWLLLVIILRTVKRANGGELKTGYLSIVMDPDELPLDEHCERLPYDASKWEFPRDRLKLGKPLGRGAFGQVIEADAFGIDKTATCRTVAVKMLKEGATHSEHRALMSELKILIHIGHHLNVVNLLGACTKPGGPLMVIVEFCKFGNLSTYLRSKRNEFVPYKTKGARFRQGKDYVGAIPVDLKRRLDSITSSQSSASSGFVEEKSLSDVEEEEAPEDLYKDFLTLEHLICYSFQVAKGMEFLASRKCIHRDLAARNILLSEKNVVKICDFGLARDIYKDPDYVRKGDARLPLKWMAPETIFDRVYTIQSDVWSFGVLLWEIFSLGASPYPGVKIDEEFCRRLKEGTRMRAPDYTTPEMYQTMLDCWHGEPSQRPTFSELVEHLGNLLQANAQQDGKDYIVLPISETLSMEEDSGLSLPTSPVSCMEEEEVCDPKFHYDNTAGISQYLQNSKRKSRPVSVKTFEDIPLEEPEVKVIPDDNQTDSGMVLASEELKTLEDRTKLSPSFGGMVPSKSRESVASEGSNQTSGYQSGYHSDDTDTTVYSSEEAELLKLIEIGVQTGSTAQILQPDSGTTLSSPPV
T3 sequence (P09619 33-1106): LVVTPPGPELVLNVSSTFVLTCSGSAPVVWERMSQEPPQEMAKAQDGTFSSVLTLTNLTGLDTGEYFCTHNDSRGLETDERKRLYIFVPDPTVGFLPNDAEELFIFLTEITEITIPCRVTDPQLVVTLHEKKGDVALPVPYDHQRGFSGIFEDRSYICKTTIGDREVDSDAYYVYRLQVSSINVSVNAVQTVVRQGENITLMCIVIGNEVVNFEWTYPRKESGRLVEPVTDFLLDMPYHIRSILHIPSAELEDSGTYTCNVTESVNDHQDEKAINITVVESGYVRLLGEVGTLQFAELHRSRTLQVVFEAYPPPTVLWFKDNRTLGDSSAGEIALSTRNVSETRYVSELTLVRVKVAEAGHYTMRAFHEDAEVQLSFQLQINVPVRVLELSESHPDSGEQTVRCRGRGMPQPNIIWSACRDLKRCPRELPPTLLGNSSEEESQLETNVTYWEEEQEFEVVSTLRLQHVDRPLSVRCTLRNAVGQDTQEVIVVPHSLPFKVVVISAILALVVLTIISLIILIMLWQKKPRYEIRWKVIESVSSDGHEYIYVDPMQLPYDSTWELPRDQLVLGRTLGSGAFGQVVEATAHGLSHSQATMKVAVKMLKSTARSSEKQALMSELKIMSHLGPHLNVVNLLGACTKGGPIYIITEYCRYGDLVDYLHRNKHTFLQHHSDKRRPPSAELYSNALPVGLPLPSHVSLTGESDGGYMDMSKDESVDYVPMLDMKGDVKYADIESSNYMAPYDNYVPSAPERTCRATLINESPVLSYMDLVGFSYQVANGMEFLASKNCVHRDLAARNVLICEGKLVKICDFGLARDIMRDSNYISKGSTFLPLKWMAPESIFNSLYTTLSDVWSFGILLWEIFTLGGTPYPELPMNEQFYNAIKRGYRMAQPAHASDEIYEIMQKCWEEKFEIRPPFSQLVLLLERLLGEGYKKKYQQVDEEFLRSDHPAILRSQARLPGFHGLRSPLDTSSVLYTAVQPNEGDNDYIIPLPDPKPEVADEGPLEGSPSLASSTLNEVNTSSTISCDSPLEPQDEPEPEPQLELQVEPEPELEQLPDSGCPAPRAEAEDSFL

Row | IC50 [1] [µM] | IC50 [2] [µM] | IC50 [3] [µM] | Structure (SMILES)
1 | > 10 | > 10 | > 10 | CC(C#N)c1cccc(C(=O)Nc2cccc(Oc3ccnc(-c4cnn(C)c4)c3)c2)c1 (racemic) [Example 48, (±)-3-(1-Cyanoethyl)-N-(3-(2-(1-methyl-1H-pyrazol-4-yl)pyridin-4-yloxy)phenyl)benzamide]
2 | > 10 | ≤ 10 | > 10 | O=C(Cc1ccc(F)c(C(F)(F)F)c1)Nc1cccc(Oc2ccnc(-c3nnco3)c2)c1 [Example 1, N-(3-(2-(1,3,4-Oxadiazol-2-yl)pyridin-4-yloxy)phenyl)-2-(4-fluoro-3-(trifluoromethyl)phenyl)acetamide]
3 | > 10 | ≤ 10 | > 10 | CCOc1cc(C(=O)Nc2cccc(Oc3ccnc(-c4nnco4)c3)c2)cc(OCC)c1OCC [Example 2, N-(3-(2-(1,3,4-Oxadiazol-2-yl)pyridin-4-yloxy)phenyl)-3,4,5-triethoxybenzamide]
4 | > 10 | ≤ 10 | ≤ 10 | O=C(Nc1cccc(Oc2ccnc(-c3nnco3)c2)c1)c1cccc(Oc2ccccc2)c1 [Example 4, N-(3-(2-(1,3,4-Oxadiazol-2-yl)pyridin-4-yloxy)phenyl)-3-phenoxybenzamide]
5 | > 10 | ≤ 10 | > 10 | O=C(Nc1cccc(Oc2ccnc(-c3nnco3)c2)c1)c1ccc(Oc2ccccc2)cc1 [Example 5, N-(3-(2-(1,3,4-Oxadiazol-2-yl)pyridin-4-yloxy)phenyl)-4-phenoxybenzamide]
6 | > 10 | ≤ 10 | > 10 | O=C(Nc1cccc(Oc2ccnc(-c3nnco3)c2)c1)c1ccc2c(c1)OCCCO2 [Example 6, N-(3-(2-(1,3,4-Oxadiazol-2-yl)pyridin-4-yloxy)phenyl)-3,4-dihydro-2H-benzo[b][1,4]dioxepine-7-carboxamide]
7 | > 10 | > 10 | > 10 | CCOc1cc(OCC)cc(C(=O)Nc2cccc(Oc3ccnc(-c4nnco4)c3)c2)c1 [Example 7, N-(3-(2-(1,3,4-Oxadiazol-2-yl)pyridin-4-yloxy)phenyl)-3,5-diethoxybenzamide]
8 | > 10 | ≤ 10 | > 10 | CCOc1ccc(C(=O)Nc2cccc(Oc3ccnc(-c4nnco4)c3)c2)cc1OCC [Example 8, N-(3-(2-(1,3,4-Oxadiazol-2-yl)pyridin-4-yloxy)phenyl)-3,4-diethoxybenzamide]
9 | > 10 | ≤ 10 | ≤ 10 | COc1ccc(C(=O)Nc2cccc(Oc3ccnc(-c4nnco4)c3)c2)cc1OC1CCCC1 [Example 9, N-(3-(2-(1,3,4-Oxadiazol-2-yl)pyridin-4-yloxy)phenyl)-3-(cyclopentyloxy)-4-methoxybenzamide]
10 | > 10 | ≤ 10 | > 10 | O=C(Nc1cccc(Oc2ccnc(-c3nnco3)c2)c1)c1cccc(N2CCCCC2)c1 [Example 11, N-[3-(2-[1,3,4]Oxadiazol-2-yl-pyridin-4-yloxy)-phenyl]-3-piperidin-1-yl-benzamide]
11 | > 10 | ≤ 10 | ≤ 10 | O=C(Nc1cccc(Oc2ccnc(-c3nnco3)c2)c1)c1cccc(N2CCOCC2)c1 [Example 12, 3-Morpholin-4-yl-N-[3-(2-[1,3,4]oxadiazol-2-yl-pyridin-4-yloxy)-phenyl]-benzamide]
12 | > 10 | ≤ 10 | ≤ 10 | CCOc1cc(C(=O)Nc2cccc(Oc3ccnc(C(=O)NC)c3)c2)cc(OCC)c1OCC [Example 13, N-Methyl-4-(3-(3,4,5-triethoxybenzamido)phenoxy)picolinamide]

Row | Structure (SMILES) | IC50 [1] [µM] | IC50 [2] [µM] | IC50 [3] [µM]
13 | CCCCOc1cc(C(=O)Nc2cccc(Oc3ccnc(-c4nnco4)c3)c2)ccc1OC [Example 10, N-(3-(2-(1,3,4-Oxadiazol-2-yl)pyridin-4-yloxy)phenyl)-3-butoxy-4-methoxybenzamide] | > 10 | ≤ 10 | ≤ 10
